From patent US20210070748A1, “INHIBITORS OF BRUTONS TYROSINE KINASE” (Pharmacyclics LLC, priority 2015, published 2021)
Read-outs that look alike come from different tables or passages of the source.

Tests used:
Format in all cases: biochemical
JAK3 = target: T1, JAK3 (Homo sapiens, UniProt P52333); experiment: Inhibition of a panel of kinases, in vitro HotSpot kinase assay: JAK3; settings: Table 10, Formula A-I; 1 μM ATP; read-out: JAK3 (IC50)
T1 sequence (P52333 1-1124): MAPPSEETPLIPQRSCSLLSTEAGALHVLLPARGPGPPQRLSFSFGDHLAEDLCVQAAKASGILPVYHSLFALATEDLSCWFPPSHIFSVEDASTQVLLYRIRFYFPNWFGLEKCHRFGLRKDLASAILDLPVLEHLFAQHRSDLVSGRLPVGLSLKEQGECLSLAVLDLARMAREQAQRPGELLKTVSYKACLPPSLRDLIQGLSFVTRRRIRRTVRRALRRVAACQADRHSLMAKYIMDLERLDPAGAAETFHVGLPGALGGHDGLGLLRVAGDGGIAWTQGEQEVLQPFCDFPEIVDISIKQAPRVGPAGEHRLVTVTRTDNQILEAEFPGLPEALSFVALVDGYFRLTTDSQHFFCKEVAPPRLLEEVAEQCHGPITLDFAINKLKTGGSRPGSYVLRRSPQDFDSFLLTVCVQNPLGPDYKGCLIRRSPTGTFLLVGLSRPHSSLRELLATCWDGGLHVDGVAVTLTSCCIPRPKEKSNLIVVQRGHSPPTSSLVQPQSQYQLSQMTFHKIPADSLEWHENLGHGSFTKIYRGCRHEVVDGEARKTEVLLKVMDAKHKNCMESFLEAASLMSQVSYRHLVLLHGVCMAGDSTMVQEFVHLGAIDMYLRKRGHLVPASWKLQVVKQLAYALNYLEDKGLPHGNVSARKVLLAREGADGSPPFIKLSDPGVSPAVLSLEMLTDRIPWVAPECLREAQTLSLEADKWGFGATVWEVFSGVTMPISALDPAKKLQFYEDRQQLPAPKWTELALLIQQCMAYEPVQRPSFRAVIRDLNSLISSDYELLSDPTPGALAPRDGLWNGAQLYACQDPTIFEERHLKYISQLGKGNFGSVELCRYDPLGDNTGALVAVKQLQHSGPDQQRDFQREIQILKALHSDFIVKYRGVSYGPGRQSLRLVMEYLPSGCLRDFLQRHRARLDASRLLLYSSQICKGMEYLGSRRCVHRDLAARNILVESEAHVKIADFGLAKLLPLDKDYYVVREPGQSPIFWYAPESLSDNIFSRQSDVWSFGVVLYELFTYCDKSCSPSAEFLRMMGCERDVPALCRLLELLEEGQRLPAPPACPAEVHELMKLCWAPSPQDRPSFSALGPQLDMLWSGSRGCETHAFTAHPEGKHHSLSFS

BTK-WT = target: T2, BTK-WT (Homo sapiens, UniProt Q06187); experiment: Btk in vitro inhibitory activity (one of Method A TR-FRET, Method B electrophoretic mobility shift, Method C radiometric filter binding)
T2 construct: purified from insect cells as a full-length construct containing an N-terminal 6X-His tag; His6 (N); made in house; host or cells: insect cells (baculovirus Sf21 in Method B)

ITK = target: T3, ITK (Homo sapiens, UniProt Q08881); experiment: Inhibition of a panel of kinases, in vitro HotSpot kinase assay: ITK; settings: E compounds, Table 17
T3 sequence (Q08881 1-620): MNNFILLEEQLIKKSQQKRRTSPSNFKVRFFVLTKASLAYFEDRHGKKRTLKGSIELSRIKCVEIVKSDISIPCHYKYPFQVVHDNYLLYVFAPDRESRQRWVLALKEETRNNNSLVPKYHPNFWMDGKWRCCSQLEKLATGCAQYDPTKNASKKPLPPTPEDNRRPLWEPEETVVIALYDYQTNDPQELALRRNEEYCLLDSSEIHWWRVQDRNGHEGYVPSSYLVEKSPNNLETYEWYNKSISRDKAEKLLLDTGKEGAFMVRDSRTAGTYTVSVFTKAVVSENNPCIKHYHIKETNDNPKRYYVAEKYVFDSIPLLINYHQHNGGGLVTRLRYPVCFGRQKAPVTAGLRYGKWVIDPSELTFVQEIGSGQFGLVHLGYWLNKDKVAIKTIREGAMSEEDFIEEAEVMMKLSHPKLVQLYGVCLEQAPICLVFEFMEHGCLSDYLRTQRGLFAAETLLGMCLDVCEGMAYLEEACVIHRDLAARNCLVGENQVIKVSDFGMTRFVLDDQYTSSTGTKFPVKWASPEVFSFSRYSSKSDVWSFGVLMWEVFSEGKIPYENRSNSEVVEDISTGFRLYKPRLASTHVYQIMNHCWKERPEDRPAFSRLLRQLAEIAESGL
Protocol: The degree of inhibition of a panel of kinases is determined using the in vitro HotSpot kinase assay (purified enzymes, ^33P-ATP, an appropriate substrate and 1 μM ATP).

[1] = E compounds, Table 17, read-out: IC50 BTK-WT

T2 sequence (Q06187 whole entry): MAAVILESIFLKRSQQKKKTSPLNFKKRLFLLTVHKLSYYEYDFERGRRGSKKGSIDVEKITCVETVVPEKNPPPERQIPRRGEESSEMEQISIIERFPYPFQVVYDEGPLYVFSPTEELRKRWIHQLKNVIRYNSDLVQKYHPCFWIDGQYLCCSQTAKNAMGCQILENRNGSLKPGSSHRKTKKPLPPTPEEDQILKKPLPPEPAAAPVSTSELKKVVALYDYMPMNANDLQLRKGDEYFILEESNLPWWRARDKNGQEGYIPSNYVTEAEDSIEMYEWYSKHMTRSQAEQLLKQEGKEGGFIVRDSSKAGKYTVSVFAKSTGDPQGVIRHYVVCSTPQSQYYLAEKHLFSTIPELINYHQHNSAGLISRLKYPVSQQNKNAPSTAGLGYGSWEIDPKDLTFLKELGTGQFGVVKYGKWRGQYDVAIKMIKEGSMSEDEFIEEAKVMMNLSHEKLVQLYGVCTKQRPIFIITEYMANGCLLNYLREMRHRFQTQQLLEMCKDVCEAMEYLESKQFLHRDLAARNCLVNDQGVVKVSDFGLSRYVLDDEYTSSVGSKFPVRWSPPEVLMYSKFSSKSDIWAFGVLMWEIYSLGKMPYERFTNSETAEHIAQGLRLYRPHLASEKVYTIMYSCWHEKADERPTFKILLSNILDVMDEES

Cc1cc(Nc2nc(N3CCC[C@H](NC(=O)c4ccc(N(C)C)cc4)[C@@H]3CO)cnc2C(N)=O)sn1 (stereo in doubt) [Example A-67, 5-[(2R,3S)-3-[4-(dimethylamino)benzamido]-2-(hydroxymethyl)piperidin-1-yl]-3-[(3-methyl-1,2-thiazol-5-yl)amino]pyrazine-2-carboxamide]
IC50 (JAK3): 100 to 1000 nM
IC50 (BTK-WT; Table 10, Formula A-I, read-out: BTK-WT (IC50)): ≤ 100 nM

C=CC(=O)N1CCC(C)(c2ccc(Nc3nc(N[C@@H]4CCCN(C(=O)C=C)C4)nnc3C(N)=O)cc2)CC1 [Example E-32, (R)-5-(4-(1-acryloyl-4-methylpiperidin-4-yl)phenylamino)-3-(1-acryloylpiperidin-3-ylamino)-1,2,4-triazine-6-carboxamide]
IC50 (ITK): ≤ 10 nM
IC50 (BTK-WT; [1]): ≤ 10 nM

C=CC(=O)N[C@@H]1CCCC[C@@H]1Nc1nnc(C(N)=O)c(Nc2ccc(C(C)C)cc2)n1 [Example E-34, 3-((1S,2R)-2-acrylamidocyclohexyl-amino)-5-(4-isopropylphenylamino)-1,2,4-triazine-6-carboxamide]
IC50 (ITK): 100 to 1000 nM
IC50 (BTK-WT; [1]): 10 to 100 nM

CCC(=O)N1CCC[C@@H](Nc2nnc(C(N)=O)c(Nc3ccc(C(C)(C)C)cc3)n2)C1 [Example E-35, (R)-5-(4-tert-butylphenylamino)-3-(1-propionylpiperidin-3-ylamino)-1,2,4-triazine-6-carboxamide]
IC50 (ITK): 100 to 1000 nM
IC50 (BTK-WT; [1]): ≤ 10 nM

C=CC(=O)N1CCC[C@@H](Nc2nnc(C(N)=O)c(Nc3ccc(C4CC4)cc3)n2)C1 [Example E-36, (R)-3-(1-acryloylpiperidin-3-ylamino)-5-(4-cyclopropylphenyl-amino)-1,2,4-triazine-6-carboxamide]
IC50 (ITK): 10 to 100 nM
IC50 (BTK-WT; [1]): ≤ 10 nM

C=CC(=O)N1CCC[C@@H](N(C(=O)C=C)c2nnc(C(N)=O)c(Nc3ccc(C4CC4)cc3)n2)C1 [Example E-37, (R)-3-(N-(1-acryloylpiperidin-3-yl)acrylamido)-5-(4-cyclopropylphenyl-amino)-1,2,4-triazine-6-carboxamide]
IC50 (ITK): 1000 to 10000 nM
IC50 (BTK-WT; [1]): ≤ 10 nM

C=CC(=O)N1CCC[C@@H](Nc2nnc(C(N)=O)c(Nc3ccc(C4(C#N)CC4)cc3)n2)C1 [Example E-38, (R)-3-(1-acryloylpiperidin-3-ylamino)-5-(4-(1-cyanocyclopropyl)phenylamino)-1,2,4-triazine-6-carboxamide]
IC50 (ITK): ≤ 10 nM
IC50 (BTK-WT; [1]): ≤ 10 nM

C=CC(=O)N1CCC[C@@H](N(C(=O)C=C)c2nnc(C(N)=O)c(Nc3ccc(C4(C#N)CC4)cc3)n2)C1 [Example E-39, (R)-3-(N-(1-acryloylpiperidin-3-yl)acrylamido)-5-(4-(1-cyanocyclopropyl)phenylamino)-1,2,4-triazine-6-carboxamide]
IC50 (ITK): 100 to 1000 nM
IC50 (BTK-WT; [1]): ≤ 10 nM

C=CC(=O)N1CCC[C@@H](Nc2nnc(C(N)=O)c(Nc3cccc(C)c3)n2)C1 [Example E-44, (R)-3-(1-acryloylpiperidin-3-ylamino)-5-(m-tolylamino)-1,2,4-triazine-6-carboxamide]
IC50 (ITK): 10 to 100 nM
IC50 (BTK-WT; [1]): ≤ 10 nM

C=CC(=O)N1CCC[C@@H](Nc2nnc(C(N)=O)c(Nc3ccc(CN[C@@H](C)C(C)(C)C)cc3)n2)C1 [Example E-57, 3-((R)-1-acryloylpiperidin-3-ylamino)-5-(4-(((S)-3,3-dimethylbutan-2-ylamino)methyl)phenyl-amino)-1,2,4-triazine-6-carboxamide]
IC50 (ITK): ≤ 10 nM
IC50 (BTK-WT; [1]): ≤ 10 nM

C=CC(=O)N[C@@H]1CCC[C@@H](Nc2nnc(C(N)=O)c(Nc3ccc(C(C)C)cc3)n2)C1 [Example E-58, 3-((1R,3R)-3-acrylamidocyclohexyl-amino)-5-(4-isopropylphenylamino)-1,2,4-triazine-6-carboxamide]
IC50 (ITK): 100 to 1000 nM
IC50 (BTK-WT; [1]): ≤ 10 nM

C=CC(=O)N[C@H]1CCC[C@@H](Nc2nnc(C(N)=O)c(Nc3ccc(C(C)C)cc3)n2)C1 [Example E-59, 3-((1R,3S)-3-acrylamidocyclohexyl-amino)-5-(4-isopropylphenylamino)-1,2,4-triazine-6-carboxamide]
IC50 (ITK): 100 to 1000 nM
IC50 (BTK-WT; [1]): ≤ 10 nM

C=CC(=O)N1CCC[C@@H](Nc2nnc(C(N)=O)c(Nc3ccc(-c4cnn(C(=O)C=C)c4)cc3)n2)C1 [Example E-60, (R)-5-(4-(1-acryloyl-1H-pyrazol-4-yl)phenylamino)-3-(1-acryloylpiperidin-3-ylamino)-1,2,4-triazine-6-carboxamide]
IC50 (ITK): 10 to 100 nM
IC50 (BTK-WT; [1]): ≤ 10 nM

C=CC(=O)N1CCC[C@@H](Nc2nnc(C(N)=O)c(Nc3cccc(-c4nccs4)c3)n2)C1 [Example E-70, (R)-3-(1-acryloylpiperidin-3-ylamino)-5-(3-(thiazol-2-yl)phenylamino)-1,2,4-triazine-6-carboxamide]
IC50 (ITK): 10 to 100 nM
IC50 (BTK-WT; [1]): ≤ 10 nM

C=CC(=O)N1CCC[C@@H](Nc2nnc(C(N)=O)c(Nc3ccc4c(c3)CCC(=O)N4C)n2)C1 [Example E-71, (R)-3-(1-acryloylpiperidin-3-ylamino)-5-(1-methyl-2-oxo-1,2,3,4-tetrahydroquinolin-6-ylamino)-1,2,4-triazine-6-carboxamide]
IC50 (ITK): ≤ 10 nM
IC50 (BTK-WT; [1]): ≤ 10 nM

CN1C(=O)CCc2cc(Nc3nc(N[C@@H]4CCCN(C(=O)OC(C)(C)C)C4)nnc3C(N)=O)ccc21 [Example E-72, (R)-tert-butyl 3-(6-carbamoyl-5-(1-methyl-2-oxo-1,2,3,4-tetrahydroquinolin-6-ylamino)-1,2,4-triazin-3-ylamino)piperidine-1-carboxylate]
IC50 (ITK): 1000 to 10000 nM
IC50 (BTK-WT; [1]): 10 to 100 nM

C=CC(=O)N1CCC[C@H](Nc2cnc(C(N)=O)c(Nc3ccc(-c4ncccn4)cc3)n2)C1 [Example E-94, (S)-5-(1-acryloylpiperidin-3-ylamino)-3-(4-(pyrimidin-2-yl)phenylamino)pyrazine-2-carboxamide]
IC50 (ITK): 100 to 1000 nM
IC50 (BTK-WT; [1]): ≤ 10 nM

C=CC(=O)N1CCC[C@H](Nc2cnc(C(N)=O)c(Nc3ccc(C(C)C)cc3)n2)C1 [Example E-101, (S)-5-(1-acryloylpiperidin-3-ylamino)-3-(4-isopropylphenylamino) pyrazine-2-carboxamide]
IC50 (ITK): 100 to 1000 nM
IC50 (BTK-WT; [1]): ≤ 10 nM

CN(c1cnc(C(N)=O)c(Nc2ccc(C3(C)CCN(C4CC4)CC3)cc2)n1)[C@@H]1CCN(C(=O)C(F)(F)F)C1 [Example E-105, (R)-3-(4-(1-cyclopropyl-4-methylpiperidin-4-yl)phenylamino)-5-(methyl(1-(2,2,2-trifluoroacetyl)pyrrolidin-3-yl)amino)pyrazine-2-carboxamide]
IC50 (ITK): ≤ 10 nM
IC50 (BTK-WT; [1]): ≤ 10 nM

CN(c1cnc(C(N)=O)c(Nc2ccc(C3(C)CCN(C4CCCC4)CC3)cc2)n1)[C@@H]1CCN(C(=O)C(F)(F)F)C1 [Example E-107, (R)-3-(4-(1-cyclopentyl-4-methylpiperidin-4-yl)phenylamino)-5-(methyl(1-(2,2,2-trifluoroacetyl)pyrrolidin-3-yl)amino)pyrazine-2-carboxamide]
IC50 (ITK): ≤ 10 nM
IC50 (BTK-WT; [1]): ≤ 10 nM
